Results published in PubChem BioAssay (NCI).
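96-well plates; 48 h exposure; 5 concentrations. Endpoints by linear interpolation between flanking doses. Not reached: highest tested concentration assigned. GI50 = concentration required for 50% inhibition of growth. TGI denotes the concentration required for complete inhibition of growth.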

Columns and labels:
Test in all cases: DTP human tumour cell line panel, 48 h
786-0 renal = test system: 786-0 renal
A498 renal = test system: A498 renal
ACHN renal = test system: ACHN renal
BT-549 breast = test system: BT-549 breast
CAKI-1 renal = test system: CAKI-1 renal
CCRF-CEM leukemia = test system: CCRF-CEM leukemia
COLO 205 colon = test system: COLO 205 colon
DU-145 prostate = test system: DU-145 prostate
EKVX NSCLC = test system: EKVX NSCLC
HCC-2998 colon = test system: HCC-2998 colon
HCT-15 colon = test system: HCT-15 colon
HL-60(TB) leukemia = test system: HL-60(TB) leukemia
HOP-62 NSCLC = test system: HOP-62 NSCLC
HOP-92 NSCLC = test system: HOP-92 NSCLC
HS 578T breast = test system: HS 578T breast
HT29 colon = test system: HT29 colon
IGROV1 ovarian = test system: IGROV1 ovarian
KM12 colon = test system: KM12 colon
LOX IMVI melanoma = test system: LOX IMVI melanoma
MALME-3M melanoma = test system: MALME-3M melanoma
MDA-MB-231 breast = test system: MDA-MB-231 breast
MDA-MB-435 = test system: MDA-MB-435
MDA-MB-468 breast = test system: MDA-MB-468 breast
NCI-H226 lung = test system: NCI-H226 lung
NCI-H23 lung = test system: NCI-H23 lung
NCI-H522 lung = test system: NCI-H522 lung
NCI/ADR-RES ovarian = test system: NCI/ADR-RES ovarian
OVCAR-3 ovarian = test system: OVCAR-3 ovarian
OVCAR-4 ovarian = test system: OVCAR-4 ovarian
OVCAR-5 ovarian = test system: OVCAR-5 ovarian
OVCAR-8 ovarian = test system: OVCAR-8 ovarian
PC-3 prostate = test system: PC-3 prostate
RXF 393 renal = test system: RXF 393 renal
SF-268 CNS = test system: SF-268 CNS
SF-295 CNS = test system: SF-295 CNS
SF-539 CNS = test system: SF-539 CNS
SK-MEL-2 melanoma = test system: SK-MEL-2 melanoma
SK-MEL-28 melanoma = test system: SK-MEL-28 melanoma
SK-MEL-5 melanoma = test system: SK-MEL-5 melanoma
SK-OV-3 ovarian = test system: SK-OV-3 ovarian
SN12C renal = test system: SN12C renal
SNB-19 CNS = test system: SNB-19 CNS
SNB-75 CNS = test system: SNB-75 CNS
TK-10 renal = test system: TK-10 renal
UACC-257 melanoma = test system: UACC-257 melanoma
UACC-62 melanoma = test system: UACC-62 melanoma
UO-31 renal = test system: UO-31 renal

## Cn1cc(/C=N/Nc2ccnc3cc(Cl)ccc23)c2ccccc21
786-0 renal
  GI50: 0.274 µM
  TGI: 0.717 µM
A498 renal
  GI50: 1.97 µM
  TGI: 3.5 µM
ACHN renal
  GI50: 1.37 µM
  TGI: 2.67 µM
BT-549 breast
  GI50: 1.62 µM
  TGI: 3.11 µM
CAKI-1 renal
  GI50: 1.3 µM
  TGI: 2.65 µM
CCRF-CEM leukemia
  GI50: 0.281 µM
  TGI: 0.799 µM
COLO 205 colon
  GI50: 1.21 µM
  TGI: 2.66 µM
DU-145 prostate
  GI50: 0.978 µM
  TGI: 2.4 µM
EKVX NSCLC
  GI50: 1.26 µM
  TGI: 2.58 µM
HCC-2998 colon
  GI50: 0.669 µM
  TGI: 1.95 µM
HCT-15 colon
  GI50: 0.293 µM
  TGI: 0.823 µM
HL-60(TB) leukemia
  GI50: 0.205 µM
  TGI: 0.466 µM
HOP-62 NSCLC
  GI50: 1.52 µM
  TGI: 3.13 µM
HOP-92 NSCLC
  GI50: 1.42 µM
  TGI: 3 µM
HS 578T breast
  GI50: 1.48 µM
  TGI: 3.49 µM
HT29 colon
  GI50: 0.185 µM
  TGI: 0.338 µM
IGROV1 ovarian
  GI50: 1.41 µM
  TGI: 2.82 µM
KM12 colon
  GI50: 1.65 µM
  TGI: 3.15 µM
LOX IMVI melanoma
  GI50: 0.175 µM
  TGI: 0.323 µM
MALME-3M melanoma
  GI50: 1.58 µM
  TGI: 3.02 µM
MDA-MB-231 breast
  GI50: 0.202 µM
  TGI: 0.488 µM
MDA-MB-435
  GI50: 0.609 µM
  TGI: 1.91 µM
MDA-MB-468 breast
  GI50: 0.239 µM
  TGI: 0.563 µM
NCI-H226 lung
  GI50: 1.5 µM
  TGI: 3.25 µM
NCI-H23 lung
  GI50: 1.21 µM
  TGI: 2.52 µM
NCI-H522 lung
  GI50: 1.32 µM
  TGI: 2.75 µM
NCI/ADR-RES ovarian
  GI50: 1.04 µM
  TGI: 2.48 µM
OVCAR-3 ovarian
  GI50: 0.206 µM
  TGI: 0.468 µM
OVCAR-4 ovarian
  GI50: 0.531 µM
  TGI: 1.2 µM
OVCAR-5 ovarian
  GI50: 1.68 µM
  TGI: 3.06 µM
OVCAR-8 ovarian
  GI50: 1.63 µM
  TGI: 3.29 µM
PC-3 prostate
  GI50: 1.15 µM
  TGI: 2.67 µM
RXF 393 renal
  GI50: 1.53 µM
  TGI: 3 µM
SF-268 CNS
  GI50: 1.72 µM
  TGI: 3.59 µM
SF-295 CNS
  GI50: 1.23 µM
  TGI: 2.53 µM
SF-539 CNS
  GI50: 0.181 µM
  TGI: 0.342 µM
SK-MEL-2 melanoma
  GI50: 1.6 µM
  TGI: 3.04 µM
SK-MEL-28 melanoma
  GI50: 1.7 µM
  TGI: 3.09 µM
SK-MEL-5 melanoma
  GI50: 1.45 µM
  TGI: 2.77 µM
SK-OV-3 ovarian
  GI50: 1.39 µM
  TGI: 2.9 µM
SN12C renal
  GI50: 1.52 µM
  TGI: 2.92 µM
SNB-19 CNS
  GI50: 1.05 µM
  TGI: 2.49 µM
SNB-75 CNS
  GI50: 0.639 µM
  TGI: 2.18 µM
TK-10 renal
  GI50: 2.52 µM
  TGI: 4.04 µM
UACC-257 melanoma
  GI50: 1.55 µM
  TGI: 2.97 µM
UACC-62 melanoma
  GI50: 1.54 µM
  TGI: 2.97 µM
UO-31 renal
  GI50: 1.24 µM
  TGI: 2.52 µM

## COc1cc(C)c(N(C)C(=O)CN(C)C)cc1Nc1nc(Nc2cccc(F)c2C(N)=O)c2cc[nH]c2n1
MDA-MB-468 breast
  GI50: 14.5 µM
  TGI: > 25 µM

## COc1ccccc1NC(=O)N/C(N)=N/c1nc2ccccc2s1
MDA-MB-468 breast
  GI50: 0.299 µM
  TGI: > 100 µM

## C=C(C)[C@@H]1CC[C@]2(C)[C@H](CC=C3[C@@H]4CC(C)(C)CC[C@]4(C(=O)OC)CC[C@]32C)[C@@]1(C)CC/C(N)=N/O
MDA-MB-468 breast
  GI50: 1.85 µM
  TGI: 5.06 µM
